From patent US20170190671A1, “BIS(ARYL)CATECHOL DERIVATIVES AS HERBICIDES” (E I DU PONT DE NEMOURS AND COMPANY, priority 2014, published 2017)

What was measured:
Assay type in all cases: in vivo
[1] = test system: pigweed (Amaranthus retroflexus); test: Test A preemergence; details: Amaranthus retroflexus, pre-emergence, 240 h, 0 to 100 scale (0 no effect, 100 complete control), read-out: Pigweed plant response rating; for pest or weed control at 31 g/ha: 31 g ai/ha; for pest or weed control at 125 g/ha: 125 g ai/ha
Procedure, shortened: (§1)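 Visual injury scored 0–100 (100 = complete control) against untreated controls about 10 days after treatment in a greenhouse. Test chemicals, formulated with surfactant in non-phytotoxic solvent, were sprayed on soil preemergence or on 2-10 cm, one- to two-leaf plants postemergence.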

[2] = test system: barnyardgrass (Echinochloa crus-galli); test: Test A preemergence; details: Echinochloa crus-galli, pre-emergence, 240 h; for pest or weed control at 31 g/ha: 31 g ai/ha, 0 to 100 scale (0 no effect, 100 complete control), read-out: Barnyardgrass plant response rating; for pest or weed control at 125 g/ha: 125 g ai/ha, 0 to 100 scale, read-out: Plant response rating, Barnyardgrass
Procedure, shortened: as §1

[3] = test system: ragweed (common ragweed, Ambrosia elatior); test: Test A preemergence; details: Ambrosia artemisiifolia, pre-emergence, 240 h, 0 to 100 scale (0 no effect, 100 complete control), read-out: Ragweed plant response rating; for pest or weed control at 31 g/ha: 31 g ai/ha; for pest or weed control at 125 g/ha: 125 g ai/ha
Procedure, shortened: as §1

[4] = test system: giant foxtail (Setaria faberii); test: Test A preemergence; details: Setaria faberi, pre-emergence, 240 h, 0 to 100 scale (0 no effect, 100 complete control), read-out: Foxtail, Giant plant response rating; for pest or weed control at 31 g/ha: 31 g ai/ha; for pest or weed control at 125 g/ha: 125 g ai/ha
Procedure, shortened: as §1

[5] = test system: Italian ryegrass (Lolium multiflorum); test: Test A preemergence; details: Lolium multiflorum, pre-emergence, 240 h, 0 to 100 scale (0 no effect, 100 complete control), read-out: Ryegrass, Italian plant response rating; for pest or weed control at 31 g/ha: 31 g ai/ha; for pest or weed control at 125 g/ha: 125 g ai/ha
Procedure, shortened: as §1

kochia (Kochia scoparia) [6] = test: Test A preemergence; details: Bassia scoparia, pre-emergence, 240 h, 0 to 100 scale (0 no effect, 100 complete control), read-out: Kochia plant response rating; for pest or weed control at 31 g/ha: 31 g ai/ha; for pest or weed control at 125 g/ha: 125 g ai/ha
Procedure, shortened: as §1

[7] = test system: blackgrass (Alopecurus myosuroides); test: Test A postemergence; details: Alopecurus myosuroides, post-emergence, 240 h, 0 to 100 scale, read-out: Plant response rating, Blackgrass; for pest or weed control at 31 g/ha: 31 g ai/ha; for pest or weed control at 125 g/ha: 125 g ai/ha
Procedure, shortened: as §1

[8] = test system: galium (catchweed bedstraw, Galium aparine); test: Test A postemergence; details: Galium, post-emergence, 240 h, 0 to 100 scale, read-out: Plant response rating, Galium; for pest or weed control at 31 g/ha: 31 g ai/ha; for pest or weed control at 125 g/ha: 125 g ai/ha
Procedure, shortened: as §1

[9] = test system: pigweed (Amaranthus retroflexus); test: Test A postemergence; details: Amaranthus retroflexus, post-emergence, 240 h, 0 to 100 scale, read-out: Plant response rating, Pigweed; for pest or weed control at 31 g/ha: 31 g ai/ha; for pest or weed control at 125 g/ha: 125 g ai/ha
Procedure, shortened: as §1

[10] = test system: barnyardgrass (Echinochloa crus-galli); test: Test A postemergence; details: Echinochloa crus-galli, post-emergence, 240 h, 0 to 100 scale, read-out: Plant response rating, Barnyardgrass; for pest or weed control at 31 g/ha: 31 g ai/ha; for pest or weed control at 125 g/ha: 125 g ai/ha
Procedure, shortened: as §1

[11] = test system: ragweed (common ragweed, Ambrosia elatior); test: Test A postemergence; details: Ambrosia artemisiifolia, post-emergence, 240 h, 0 to 100 scale, read-out: Plant response rating, Ragweed; for pest or weed control at 31 g/ha: 31 g ai/ha; for pest or weed control at 125 g/ha: 125 g ai/ha
Procedure, shortened: as §1

[12] = test system: giant foxtail (Setaria faberii); test: Test A postemergence; details: Setaria faberi, post-emergence, 240 h, 0 to 100 scale, read-out: Plant response rating, Foxtail, Giant; for pest or weed control at 31 g/ha: 31 g ai/ha; for pest or weed control at 125 g/ha: 125 g ai/ha
Procedure, shortened: as §1

[13] = test system: wheat (Triticum aestivum); test: Test A postemergence; details: Triticum aestivum, post-emergence, 240 h, 0 to 100 scale, read-out: Plant response rating, Wheat; for plant injury at 31 g/ha: 31 g ai/ha; for plant injury at 125 g/ha: 125 g ai/ha
Procedure, shortened: as §1

[14] = test system: Italian ryegrass (Lolium multiflorum); test: Test A postemergence; details: Lolium multiflorum, post-emergence, 240 h, 0 to 100 scale, read-out: Plant response rating, Ryegrass, Italian; for pest or weed control at 31 g/ha: 31 g ai/ha; for pest or weed control at 125 g/ha: 125 g ai/ha
Procedure, shortened: as §1

corn (Zea mays) = test: Test A postemergence; details: Zea mays, post-emergence, 240 h, 0 to 100 scale; for Corn plant response rating (crop injury, 0 = no effect, 100 = complete kill) at 31 g/ha: 31 g ai/ha; for Corn plant response rating (crop injury, 0 = no effect, 100 = complete kill) at 125 g/ha: 125 g ai/ha
Procedure, shortened: as §1

kochia (Kochia scoparia) [15] = test: Test A postemergence; details: Bassia scoparia, post-emergence, 240 h, 0 to 100 scale, read-out: Plant response rating, Kochia; for pest or weed control at 31 g/ha: 31 g ai/ha; for pest or weed control at 125 g/ha: 125 g ai/ha
Procedure, shortened: as §1

[16] = test system: ducksalad (Heteranthera limosa); test: Test B flooded paddy; details: Heteranthera limosa, 336 h; 250 g ai/ha, Flood, 13 to 15 days, scale 0 (no effect) to 100 (complete control); read-out: Plant response rating, Ducksalad
Procedure, shortened: (§2)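 Visual injury ratings against untreated controls, taken 13 to 15 days after compound was added to paddy water standing 3 cm above the soil.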

[17] = test system: barnyardgrass (Echinochloa crus-galli); test: Test B flooded paddy; details: Echinochloa crus-galli, 336 h; 250 g ai/ha, Flood, 13 to 15 days, scale 0 (no effect) to 100 (complete control); read-out: Plant response rating, Barnyardgrass
Procedure, shortened: as §2

rice (Oryza sativa) = test: Test B flooded paddy; details: Oryza sativa, 336 h; 250 g ai/ha, Flood, 13 to 15 days, scale 0 (no effect) to 100 (complete control); read-out: Plant response rating, Rice
Procedure, shortened: as §2

[18] = test system: sedge, umbrella (small-flower umbrella sedge, Cyperus difformis); test: Test B flooded paddy; details: Cyperus difformis, 336 h; 250 g ai/ha, Flood, 13 to 15 days, scale 0 (no effect) to 100 (complete control); read-out: Plant response rating, Sedge, Umbrella
Procedure, shortened: as §2

Row | Structure (SMILES) | pest or weed control at 31 g/ha [1] [%] | pest or weed control at 125 g/ha [1] [%] | pest or weed control at 31 g/ha [2] [%] | pest or weed control at 125 g/ha [2] [%] | pest or weed control at 31 g/ha [3] [%] | pest or weed control at 125 g/ha [3] [%] | pest or weed control at 31 g/ha [4] [%] | pest or weed control at 125 g/ha [4] [%] | pest or weed control at 31 g/ha [5] [%] | pest or weed control at 125 g/ha [5] [%] | pest or weed control at 31 g/ha (kochia (Kochia scoparia) [6]) [%] | pest or weed control at 125 g/ha (kochia (Kochia scoparia) [6]) [%] | pest or weed control at 31 g/ha [7] [%] | pest or weed control at 125 g/ha [7] [%] | pest or weed control at 31 g/ha [8] [%] | pest or weed control at 125 g/ha [8] [%] | pest or weed control at 31 g/ha [9] [%] | pest or weed control at 125 g/ha [9] [%] | pest or weed control at 31 g/ha [10] [%] | pest or weed control at 125 g/ha [10] [%] | other results
1 | Fc1ccc(F)c(Oc2ncc(Br)cn2)c1Oc1ncc(Br)cn1 [Compound 31] | 70 | 100 | 0 | 70 | 0 | 20 | 40 | 90 | 0 | 0 | 30 | 90 | 20 | 30 | 70 | 100 | 90 | 90 | 10 | 20 | pest or weed control at 31 g/ha [11]: 0%; pest or weed control at 125 g/ha [11]: 0%; pest or weed control at 31 g/ha [12]: 20%; pest or weed control at 125 g/ha [12]: 40%; plant injury at 31 g/ha [13]: 20%; plant injury at 125 g/ha [13]: 30%; pest or weed control at 31 g/ha [14]: 10%; pest or weed control at 125 g/ha [14]: 30%; Corn plant response rating (crop injury, 0 = no effect, 100 = complete kill) at 31 g/ha (corn (Zea mays)): 20%; Corn plant response rating (crop injury, 0 = no effect, 100 = complete kill) at 125 g/ha (corn (Zea mays)): 30%; pest or weed control at 31 g/ha (kochia (Kochia scoparia) [15]): 20%; pest or weed control at 125 g/ha (kochia (Kochia scoparia) [15]): 80%; pest or weed control at 250 g/ha [16]: 50%; pest or weed control at 250 g/ha [17]: 0%; plant injury at 250 g/ha (rice (Oryza sativa)): 0%; pest or weed control at 250 g/ha [18]: 50%
2 | N#Cc1cccc(Oc2ncc(Cl)cn2)c1Oc1ccc(Cl)cn1 [Compound 16, 2-[(5-chloro-2-pyridinyl)oxy]-3-[(5-chloro-2-pyrimidinyl)oxy]benzonitrile] | 100 | 100 | 30 | 70 | 0 | 0 | 90 | 100 | 0 | 20 | 30 | 90 | 50 | 70 | 90 | 90 | 100 | 100 | 10 | 70 | pest or weed control at 31 g/ha [11]: 10%; pest or weed control at 125 g/ha [11]: 30%; pest or weed control at 31 g/ha [12]: 70%; pest or weed control at 125 g/ha [12]: 80%; plant injury at 31 g/ha [13]: 0%; plant injury at 125 g/ha [13]: 20%; pest or weed control at 31 g/ha [14]: 40%; pest or weed control at 125 g/ha [14]: 80%; Corn plant response rating (crop injury, 0 = no effect, 100 = complete kill) at 31 g/ha (corn (Zea mays)): 0%; Corn plant response rating (crop injury, 0 = no effect, 100 = complete kill) at 125 g/ha (corn (Zea mays)): 20%; pest or weed control at 31 g/ha (kochia (Kochia scoparia) [15]): 50%; pest or weed control at 125 g/ha (kochia (Kochia scoparia) [15]): 100%; pest or weed control at 250 g/ha [16]: 90%; pest or weed control at 250 g/ha [17]: 20%; plant injury at 250 g/ha (rice (Oryza sativa)): 40%; pest or weed control at 250 g/ha [18]: 95%
